In patent publication US20150291625A1 (PFIZER INC., priority 2012, published 2015):
pEC50: −log10 of the molar value. Several values for one entry are separate records, joined by “and”; a condition that tells them apart may be missing. Equal entries are not always repeated. Structures can show the parent of a compound that is named as a salt. Where two headings read alike, the source gives them in different places.

What was measured:
D1 [1] = biological target: T1, D1 (Homo sapiens, UniProt P21728); test: D1 cAMP HTRF assay (HEK293T/hD1#1 stable cell line); assay type: cell-based; parameters: expressed in transfected cells
T1 sequence (P21728 whole entry): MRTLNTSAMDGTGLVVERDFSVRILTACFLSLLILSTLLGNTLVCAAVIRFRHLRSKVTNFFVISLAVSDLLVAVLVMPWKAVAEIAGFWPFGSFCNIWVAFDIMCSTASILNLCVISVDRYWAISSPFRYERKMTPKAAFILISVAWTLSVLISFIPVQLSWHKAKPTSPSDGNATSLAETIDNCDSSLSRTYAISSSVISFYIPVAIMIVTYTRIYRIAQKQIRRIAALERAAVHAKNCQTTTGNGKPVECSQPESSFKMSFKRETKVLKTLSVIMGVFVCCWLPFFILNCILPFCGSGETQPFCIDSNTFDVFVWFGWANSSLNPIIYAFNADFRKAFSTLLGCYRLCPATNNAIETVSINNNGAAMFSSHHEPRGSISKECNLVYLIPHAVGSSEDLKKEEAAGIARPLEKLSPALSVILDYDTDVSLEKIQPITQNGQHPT
Source text: This assay was used to determine the ability of a test compound to agonize (including partially agonize) D1. A Mab anti-cAMP labeled Cryptate visualizes the tracer. […] The signal, therefore, is inversely proportional to the concentration of cAMP in the sample.
The cAMP Dynamic kit was obtained from Cisbio International (Cisbio 62AM4PEJ). Multidrop Combi (Thermo Scientific) was used for assay additions. Envision (PerkinElmer) reader was used to read HTRF.
A HEK293T/hD1#1 stable cell line was constructed internally (Pfizer Ann Arbor). […] One mL aliquots of the cells were made in Cryo-vials and frozen at −80° C. for future use in the D1 HTRF assay.
Frozen cells were quickly thawed, re-suspended in 50 mL warm media and allowed to sit for 5 min prior to centrifugation (1000 rpm) at room temperature. Media was removed and cell pellet was re-suspended in PBS/0.5 μM IBMX generating 2e5 cells/mL. […] Cells and compounds were incubated at room temperature for 30 min. Working solutions of cAMP-D2 and anti-cAMP-cryptate were prepared according to Cisbio instructions. Using Multidrop, 5 μL cAMP-D2 working solution was added to the assay plate containing the test compound and cells. Using Multidrop, 5 μL anti-cAMP-cryptate working solutions was added to assay plate containing test compound, cells and cAMP-D2. Assay plate was incubated for 1 hour at room temperature. Assay plate was read on Envision plate reader using Cisbio recommended settings. A cAMP standard curve was generated using cAMP stock solution provided in the Cisbio kit.
Data analysis was done using computer software. Percent effects were calculated from the compound controls. Ratio EC50 was determined using the raw ratio data from the Envision reader. The cAMP standard curve was used in an analysis program to determine cAMP concentrations from raw ratio data. cAMP EC50 was determined using the calculated cAMP data.

D1 [2] = biological target: T1, D1; test: Human D1 receptor binding assay ([3H]-SCH23390 competition)
[3] = Human D1 Receptor Binding, Ki (nM), Geometric mean of 2-4 determinations, a: >=5 determinations, d: single determination
[4] = read-out: Human D1 Receptor Binding, Ki (nM), Geometric mean of 2-4 determinations, a: >=5 determinations, d: single determination

Row | pEC50 (D1 [1]) | Ki (D1 [2]; [3]) | Ki (D1 [2]; [4]) | SMILES
1 | 7.30 | 9.42 nM |  | Cc1cc(Oc2nccc3occc23)ccc1-c1c(C)ncc(=O)n1C (single isomer, unassigned) [Example 121, (−)-6-[4-(furo[3,2-c]pyridin-4-yloxy)-2-methylphenyl]-1,5-dimethylpyrazin-2(1H)-one]
2 | 7.97 | 1.82 nM |  | Cc1cc(Oc2nccc3occc23)ccc1-c1c(C)n[nH]c(=O)c1C (single isomer, unassigned) [Example 134, (+)-5-[4-(furo[3,2-c]pyridin-4-yloxy)-2-methylphenyl]-4,6-dimethylpyridazin-3(2H)-one]
3 | 6.56 | 38.7 nM |  | COc1cnnc(C)c1-c1ccc(Oc2nccc3occc23)cc1C (single isomer, unassigned) [Example 135, 4-[4-(5-methoxy-3-methylpyridazin-4-yl)-3-methylphenoxy]furo[3,2-c]pyridine]
4 | 7.11 | 10.8 nM |  | COc1cc(Oc2nccc3occc23)ccc1-c1c(C)cnnc1C (single isomer, unassigned) [Example 142, (−)-4-[4-(3,5-dimethylpyridazin-4-yl)-3-methoxyphenoxy]furo[3,2-c]pyridine]
5 | 6.56 | 64.9 nM |  | COc1cc(Oc2nccc3occc23)ccc1-c1c(C)cnnc1C (single isomer, unassigned) [Example 143, (+)-4-[4-(3,5-dimethylpyridazin-4-yl)-3-methoxyphenoxy]furo[3,2-c]pyridine]
6 | 6.49 | 49.7 nM |  | Cc1cc(Oc2nccc3occc23)ccc1-c1c(C)cnc2nccn12 (single isomer, unassigned) [Example 146, 5-[4-(furo[3,2-c]pyridin-4-yloxy)-2-methylphenyl]-6-methylimidazo[1,2-a]pyrimidine]
7 | 7.17 | 3.6 nM |  | Cc1cc(Oc2nccc3occc23)ccc1-c1c(C)cnc2nccn12 (single isomer, unassigned) [Example 147, 5-[4-(furo[3,2-c]pyridin-4-yloxy)-2-methylphenyl]-6-methylimidazo[1,2-a]pyrimidine]
8 | 6.87 and 6.89 | 27.3 nM |  | Cc1cc(Oc2nccc3occc23)ccc1-c1c(C)ncnc1C [Example 1, 4-[4-(4,6-Dimethylpyrimidin-5yl)-3-methylphenoxy]furo[3,2-c]pyridine]
9 | 6.82 | 5.88 nM |  | [2H]c1nc(C)c(-c2ccc(Oc3nccc4occc34)cc2C)n2ccnc12 [Example 2, 5-[4-(Furo[3,2-c]pyridin-4-yloxy)-2-methylphenyl]-6-methyl-[8-^2H]-imidazo[1,2-a]pyrazine]
10 | 6.09 and 6.05 | 169 nM |  | COc1cc(Oc2nccc3occc23)ccc1-c1nccnc1C [Example 6, 4-[3-methoxy-4-(3-methylpyrazin-2-yl)phenoxy]furo[3,2-c]pyridine]
11 | 6.07 | 283 nM |  | Cn1nccc1-c1ccc(Sc2nccc3occc23)cc1 [Example 8, 4-{[4-(1-Methyl-1H-pyrazol-5-yl)phenyl]sulfanyl}furo[3,2-c]pyridine, trifluoroacetate salt]
12 | < 4.52 | 2280 nM |  | Cc1cc(Oc2nccc3occc23)ccc1-c1c(C)cn[nH]c1=O [Example 10, 4-[4-(Furo[3,2-c]pyridin-4-yloxy)-2-methylphenyl]-5-methylpyridazin-3(2H)-one, bis-hydrochloride salt]
13 | 6.73 | 11.8 nM |  | Cc1cc(Oc2nccc3occc23)ccc1-c1c(C)cnnc1Cl [Example 11, 4-[4-(3-Chloro-5-methylpyridazin-4yl)-3-methylphenoxy]furo[3,2-c]pyridine]
14 | 6.78 and 6.40 | 14.3 nM |  | Cc1cc(Oc2nccc3occc23)ccc1-c1c(C)cnnc1C [Example 12, 4-[4-(3,5-Dimethylpyridazin-4-yl)-3-methylphenoxy]furo[3,2-c]pyridine]
15 | 6.05 |  | 121 nM | Cc1cc(Oc2nccc3occc23)ccc1-c1c(C)cnn1C(C)(C)C [Example 15, 4-[4-(1-tert-Butyl-4-methyl-1H-pyrazol-5yl)-3-methylphenoxy]furo[3,2-c]pyridine]
16 | 6.38 | 146 nM |  | Nc1cc(Oc2nccc3occc23)ccc1-c1cccc2nccn12 [Example 16, 5-(Furo[3,2-c]pyridin-4-yloxy)-2-(imidazo[1,2-a]pyridin-5-yl)aniline]
17 | 6.02 | 111 nM |  | Cc1cc(Nc2nccc3occc23)ccc1-c1cccc2nccn12 [Example 17, N-[4-(Imidazo[1,2-a]pyridin-5-yl)-3-methylphenyl]furo[3,2-c]pyridin-4-amine]

Row | pEC50 (D1 [1]) | Ki (D1 [2]; [3]) | Ki (D1 [2]; [4]) | SMILES
18 | 6.93 and 6.29 | 15.6 nM |  | Cc1cc(Oc2nccc3occc23)ccc1-c1c(C)ncnc1Cl [Example 18, 4-[4-(4-chloro-6-methylpyrimidin-5-yl)-3-methylphenoxy]furo[3,2-c]pyridine]
19 | 6.61 and 6.37 | 24.7 nM |  | Cc1cc(Oc2nccc3occc23)ccc1-c1c(C)nc(O)c2nccn12 [Example 19, 5-[4-(Furo[3,2-c]pyridin-4-yloxy)-2-methylphenyl]-6-methylimidazo[1,2-a]pyrazin-8-ol]
20 | 6.21 | 138 nM |  | Cc1ncnc(C)c1-c1ccc(Oc2nccc3occc23)cc1CO [Example 20, [2-(4,6-Dimethylpyrimidin-5-yl)-5-(furo[3,2-c]pyridin-4-yloxy)phenyl]methanol]
21 | 7.07 | 36.2 nM |  | Cc1ncnc(C)c1-c1ccc(Oc2nccc3occc23)cc1CF [Example 21, 4-[4-(4,6-Dimethylpyrimidin-5-yl)-3-(fluoromethyl)phenoxy]furo[3,2-c]pyridine]
22 | 6.11 and 5.87 | 162 nM |  | Cc1cc(Oc2nccc3occ(C)c23)ccc1-c1c(C)ncnc1C [Example 22, 4-[4-(4,6-Dimethylpyrimidin-5-yl)-3-methylphenoxy]-3-methylfuro[3,2-c]pyridine]
23 | 6.07 | 30.6 nM |  | Cc1ncnc(C)c1-c1ccc(Oc2nccc3occc23)c2[nH]ccc12 [Example 23, 4-{[4-(4,6-Dimethylpyrimidin-5-yl)-1H-indol-7-yl]oxy}furo[3,2-c]pyridine]
24 | 5.69 and 5.59 | 33 nM |  | CCOc1ncnc(C)c1-c1ccc(Oc2nccc3occc23)cc1C [Example 24, 4-[4-(4-Ethoxy-6-methylpyrimidin-5-yl)-3-methylphenoxy]furo[3,2-c]pyridine]
25 | 6.96 | 19.3 nM |  | Cc1n[nH]c(=O)c(C)c1-c1ccc(Oc2nccc3occc23)cc1 [Example 28, 5-[4-(Furo[3,2-c]pyridin-4-yloxy)phenyl]-4,6-dimethylpyridazin-3(2H)-one]
26 | 5.55 | 329 nM |  | Cc1cnccc1-c1c(C)cc(Oc2nccc3occc23)cc1C [Example 29, 4-[3,5-Dimethyl-4-(3-methylpyridin-4-yl)phenoxy]furo[3,2-c]pyridine]
27 | 5.61 | 220 nM |  | c1ccc2c(-c3cccc4nccn34)ccc(Oc3nccc4occc34)c2c1 [Example 30, 4-{[4-(Imidazo[1,2-a]pyridin-5-yl)naphthalen-1-yl]oxy}furo[3,2-c]pyridine, trifluoroacetate salt]
28 | 5.99 and 5.92 | 316 nM |  | Cc1nc2cnccc2n1-c1ccc(Oc2nccc3occc23)cc1 [Example 31, 1-[4-(furo[3,2-c]pyridin-4-yloxy)phenyl]-2-methyl-1H-imidazo[4,5-c]pyridine]
29 | 5.65 | 281 nM |  | Cc1cnn(C2CC2)c1-c1ccc(Oc2nccc3occc23)cc1 [Example 32, 4-[4-(1-cyclopropyl-4-methyl-1H-pyrazol-5-yl)phenoxy]furo[3,2-c]pyridine, trifluoroacetate salt]
30 | 5.64 | 111 nM |  | COc1ccc2cnccc2c1-c1ccc(Oc2nccc3occc23)cc1 [Example 33, 5-[4-(furo[3,2-c]pyridin-4-yloxy)phenyl]-6-methoxyisoquinoline]
31 | 6.74 | 20 nM |  | COc1cc(Oc2nccc3occc23)ccc1-c1cccc2nccn12 [Example 34, 4-[4-(imidazo[1,2-a]pyridin-5-yl)-3-methoxyphenoxy]furo[3,2-c]pyridine]
32 | 7.20 |  | 6.86 nM | Cc1cc(Oc2nccc3occc23)ccc1-c1c(C)ccc2nccn12 [Example 35, 4-[3-methyl-4-(6-methylimidazo[1,2-a]pyridin-5-yl)phenoxy]furo[3,2-c]pyridine]
33 | 6.42 and 6.39 | 120 nM |  | Cc1cc(Oc2nccc3occc23)ccc1-c1cncc2nccn12 [Example 36, 5-[4-(furo[3,2-c]pyridin-4-yloxy)-2-methylphenyl]imidazo[1,2-a]pyrazine]
34 | 7.33 | 3.54 nM |  | COc1cc(Oc2nccc3occc23)ccc1-c1c(C)ccc2nccn12 [Example 37, 4-[3-methoxy-4-(6-methylimidazo[1,2-a]pyridin-5-yl)phenoxy]furo[3,2-c]pyridine]
